Data taken from article PMC7168333, “5-(Carbamoylmethylene)-oxazolidin-2-ones as a Promising Class of Heterocycles Inducing Apoptosis Triggered by Increased ROS Levels and Mitochondrial Dysfunction in Breast and Cervical Cancer” (Biomedicines, 2020).

Experiments:
MCF-10A cells [1] = assay: MTT cell viability assay, MCF-10A; type: cell-based, human; conditions: for IC50: Homo sapiens, MCF-10A, 72 h
MCF-7 cells [2] = assay: MTT cell viability assay, MCF-7; type: cell-based; conditions: Homo sapiens, MCF7, 72 h
Experimental: Cell viability was assessed by using 3-(4,5-dimethylthiazol-2-y1)-2,5-diphenyltetrazolium bromide (MTT) assay (Sigma-Aldrich, Milan, Italy), as already reported. […] Untreated cells were added with the vehicle (DMSO) and used as a control. After treatment, fresh MTT reagent (used at a final concentration of 0.5 mg/mL) was added, prolonging incubation for 2 h according to the manufacturer’s protocol. Absorbance at 570 nm was measured in each well, including controls, and every experiment was carried out in triplicate.
(§1) For each sample, mean absorbance was expressed as a percentage of the control and plotted vs. drug concentration, in order to determine the IC50 value (i.e., drug concentration able to decrease cell viability by 50% with respect to the control) for each cell line, generating a sigmoidal dose–response curve by the use of GraphPad Prism 7 software (GraphPad Inc., San Diego, CA, USA). Mean values and standard deviations (SD) of three independent experiments carried out in triplicate were reported. […]

HeLa cells [3] = assay: MTT cell viability assay, HeLa; type: cell-based; conditions: Homo sapiens, 72 h
Experimental: Cell viability was assessed by using 3-(4,5-dimethylthiazol-2-y1)-2,5-diphenyltetrazolium bromide (MTT) assay (Sigma-Aldrich, Milan, Italy), as already reported. In brief, MCF-7 and HeLa cells (2 × 10^4 cells/well) were seeded in a 48-well plate and grown in complete medium overnight, then they were switched into DMEM-F12 supplemented with 2% FBS and treated with increasing concentrations (1, 10, 50, 75, and 100 µM) of different oxazolidin-2-ones derivatives (OA-OI) or doxorubicin for 72 h. Untreated cells were added with the vehicle (DMSO) and used as a control. After treatment, fresh MTT reagent (used at a final concentration of 0.5 mg/mL) was added, prolonging incubation for 2 h according to the manufacturer’s protocol. Absorbance at 570 nm was measured in each well, including controls, and every experiment was carried out in triplicate.
as §1

HeLa cells [4] = assay: ROS production (CM-H2DCFDA, FACS), HeLa; type: cell-based, human; conditions: 24 h
Experimental: (§2) Intracellular level of reactive oxygen species (ROS) was assessed by using CM-H2DCFDA (Invitrogen, Milan, Italy), a cell-permeable fluorogenic probe, which is deacetylated by intracellular esterases and can be oxidized in the presence of intracellular ROS, becoming highly fluorescent. MCF-7 and HeLa cells were seeded into 96-well tissue culture plates at a density of 5 × 10^4 cells/well and treated with 15 and 30 µM OI, respectively, for 24 h. Control cells were added with DMSO and processed at the same time. Then, cells were washed with PBS and stained in the dark with CM-H2DCFDA (diluted in PBS/CM to a final concentration of 1 μM) for 20 min at 37 °C. Next steps were also performed in the dark, in order to avoid probe oxidation. Cells were washed three times with PBS, harvested, re-suspended in PBS/CM, and fluorescence was measured by using Fortessa (BD Bioscience, San Jose, CA, USA). ROS levels were estimated by using mean fluorescent intensity of the viable cell population. Results were analyzed by the use of FlowJo software (Tree Star Inc., Ashland, OR, USA).

HeLa cells [5] = assay: TUNEL assay, HeLa; type: cell-based, human; conditions: 30 µM, 72 h, control 10%
Experimental: (§3) Apoptosis was tested by enzymatic labeling of DNA strand breaks using terminal deoxynucleotidyl transferase-mediated deoxyuridine triphosphate nick end-labeling (TUNEL) assay, following the guidelines of the manufacturer (TUNEL assay kit, Promega, Madison, WI, USA). Briefly, MCF-7 and HeLa cells were added with DMSO or treated with 15 and 30 µM OI, respectively, for 72 h. MCF-10A were added to DMSO or treated using 30 µM OI, for 72 h. Next, nuclear staining was achieved using 0.2 mg/mL 4′,6- diamidino-2-phenylindole (DAPI, Sigma-Aldrich, Milan, Italy) and samples were examined using a fluorescent microscope (Olympus BX4 equipped with CSV1.14 software employing a CAMXC-30 for image acquisition). Images were representative of three independent experiments.

[6] = system: cytochrome c in MCF-7 cells; assay: Western blot of cytochrome c in cytosolic and mitochondrial fractions, MCF-7; type: cell-based, human; conditions: MCF-7, 15 µM, 24 h, vs control
Experimental: (§4) Both MCF-7 and HeLa cells were cultured in 100 mm dishes (1 × 10^7 cells/dish), added with the vehicle alone (DMSO) or treated for 24 h with 15 and 30 µM OI, respectively. Then, mitochondria extraction was performed as previously described. In brief, cells were harvested, resuspended in isolation buffer for cells (IBC, containing 200 mM sucrose, 10 mM Tris/MOPS, 1 mM EDTA/Tris, pH 7.4), and homogenized by a glass potter homogenizer. Nuclei and unbroken cells were removed by centrifugation (600× g for 10 min). Supernatants were centrifuged for 30 min at 10,000× g, obtaining upper cytosolic fractions and mitochondrial pellets; the latter were resuspended in RIPA buffer (PBS pH 7.4, 1% NP-40, 0.5% sodium deoxycholate, and 0.1% sodium dodecyl sulfate) containing a protease and phosphatase inhibitor cocktail (Sigma-Aldrich, Milan, Italy). Protein concentration was determined using Bio-Rad Protein Assay (Bio-Rad Laboratories, Hercules, CA, USA) and Western blotting was performed as next described.
(§5) Western blot analysis was conducted basically as previously reported. In detail, MCF-7 and HeLa cells were grown to 70–80% confluence, added to DMSO, or treated with 15 and 30 µM OI, respectively, for 24 h. In order to obtain total cell lysates, harvested cells were lysed using 200 μL of lysis buffer as previously reported. Cytosolic and mitochondrial fractions were isolated as already described. […]

MCF-7 cells [7] = assay: TUNEL assay, MCF-7; type: cell-based, human; conditions: MCF-7, 15 µM, 72 h; control 2.3%
Experimental: as §3

[8] = system: cyclin D1, CDK4, phosphorylated Rb in MCF-7 cells; assay: Western blot of cell cycle regulators, MCF-7; type: cell-based, human; conditions: MCF-7, 15 µM, 24 and 72 h
Experimental: (§6) Western blot analysis was conducted basically as previously reported. […] In order to obtain total cell lysates, harvested cells were lysed using 200 μL of lysis buffer as previously reported. Cytosolic and mitochondrial fractions were isolated as already described. Identical amounts of proteins from total lysate, mitochondrial, or cytosolic fraction were resolved on SDS-polyacrylamide gel, blotted to nitrocellulose membrane, and probed with proper primary antibodies (Santa Cruz Biotechnology, Dallas, TX, USA). Immunoreactive products were identified by using ECL Western blotting detection system (Bio-Rad Laboratories, Hercules, CA, USA).

MCF-10A cells [9] = assay: Cell cycle analysis (PI staining, flow cytometry), MCF-10A; type: cell-based, human; conditions: 30 µM, 24 h
Experimental: (§7) In order to assess cell cycle analysis, MCF-7 and HeLa cells were seeded in 6-well plates, at a density of 2.5 × 10^5 cells/well, then they were added to DMSO or treated using 15 and 30 µM OI, respectively, for 24 h. MCF-10A were seeded as described before, then they were added to DMSO or treated using 30 µM OI, the highest concentration used for cancer cells, for 24 h. Next, cells were harvested by trypsinization, rinsed twice with cold PBS, and pelleted by centrifugation at 1500 rpm for 5 min. Pellets were re-suspended in 70% ice-cold ethanol for 30 min at 4 °C to perform cell fixation. Then, samples were rinsed twice with PBS and stained using a solution containing 3.8 mM sodium citrate (Sigma-Aldrich, Milan, Italy), 100 μg/mL RNAse (Sigma-Aldrich, Milan, Italy), 50 μg/mL propidium iodide (PI, Sigma-Aldrich, Milan, Italy), and 0.1% Igepal (Sigma-Aldrich, Milan, Italy) in PBS for 1 h at 37 °C. Subsequent cytofluorimetric analysis was achieved by BD FACSJazz™ Cell Sorter (Becton Dickinson, Franklin Lakes, NJ, USA).

[10] = system: procaspases -8 and -9 in MCF-7 cells; assay: Western blot of procaspases -8 and -9, MCF-7; type: cell-based, human; conditions: MCF-7, 15 µM, 24 and 72 h
Experimental: as §6

MCF-7 cells [11] = assay: ROS production (CM-H2DCFDA, FACS), MCF-7; type: cell-based, human; conditions: 24 h
Experimental: as §2

MCF-7 cells [12] = assay: Cell cycle analysis (PI staining, flow cytometry), MCF-7; type: cell-based, human; conditions: MCF-7, 15 µM, 24 h
Experimental: as §7

[13] = system: procaspases -8 and -9 in HeLa cells; assay: Western blot of procaspases -8 and -9, HeLa; type: cell-based, human; conditions: 30 µM, 24 and 72 h
Experimental: as §6

MCF-7 cells [14] = assay: Mitochondrial staining (MitoTracker Orange / Deep-Red, FACS), MCF-7; type: cell-based, human; conditions: MCF-7, 15 µM, 24 h
Experimental: (§8) Mitochondrial activity was assessed using MitoTracker Orange (Invitrogen, Milan, Italy), a fluorescent dye that enters mitochondria in a membrane potential-dependent way. Mitochondrial mass was determined using MitoTracker Deep-Red (Invitrogen, Milan, Italy), a far red-fluorescent dye that is largely used to label mitochondria. Both MCF-7 and HeLa cells were treated using 15 and 30 µM OI, respectively, for 24 h. Control cells were added with DMSO and simultaneously processed. Then, cells were incubated in the dark for 30–60 min at 37 °C with pre-warmed MitoTracker staining solution (diluted in PBS/CM to reach a final concentration of 10 nM). All the next steps were still carried out in the dark. Cells were rinsed in PBS, harvested, and re-suspended in 300 μL of PBS/CM. Cells were then examined by flow cytometry using Fortessa (BD Bioscience, San Jose, CA, USA). Data analysis was performed using FlowJo software (Tree Star Inc., Ashland, OR, USA).

[15] = system: cytochrome c in HeLa cells; assay: Western blot of cytochrome c in cytosolic and mitochondrial fractions, HeLa; type: cell-based, human; conditions: 30 µM, 24 h, vs control
Experimental: as §4, §5

MCF-10A cells [16] = assay: TUNEL assay, MCF-10A; type: cell-based, human; conditions: 30 µM, 72 h
Experimental: as §3

HeLa cells [17] = assay: Cell cycle analysis (PI staining, flow cytometry), HeLa; type: cell-based, human; conditions: 30 µM, 24 h
Experimental: as §7

HeLa cells [18] = assay: Mitochondrial staining (MitoTracker Orange / Deep-Red, FACS), HeLa; type: cell-based, human; conditions: 30 µM, 24 h
Experimental: as §8

CCCCN1C(=O)O/C(=C\C(=O)N2CCOCC2)C12CCCCC2 [OE]
IC50 (MCF-10A cells [1]): 978 µM
IC50 (MCF-7 cells [2]): 304 µM
IC50 (HeLa cells [3]): 129 µM

CC1(C)/C(=C\C(=O)N2CCOCC2)OC(=O)N1Cc1ccccc1 [OF]
IC50 (MCF-10A cells [1]): 718 µM
IC50 (MCF-7 cells [2]): 409 µM
IC50 (HeLa cells [3]): 159 µM

CC1(C)/C(=C/C(=O)N2CCOCC2)OC(=O)N1Cc1ccccc1 [OG]
IC50 (MCF-10A cells [1]): 677 µM
IC50 (MCF-7 cells [2]): 345 µM
IC50 (HeLa cells [3]): 134 µM

CCCCN1C(=O)O/C(=C/C(=O)N2CCOCC2)C1(C)CC (stereo not drawn) [OH]
IC50 (MCF-10A cells [1]): 319 µM
IC50 (MCF-7 cells [2]): 92.9 µM
IC50 (HeLa cells [3]): 54.2 µM

CCN(CC)C(=O)/C=C1/OC(=O)N(Cc2ccccc2)C1(C)C [OI, (E)-2-(3-benzyl-4,4-dimethyl-2-oxooxazolidin-5-ylidene)-N,N-diethylacetamide]
ROS increase in the presence of NAC (HeLa cells [4]; 30 µM OI + NAC): no longer evident
ROS generation (HeLa cells [4]; 30 µM, vs control): significantly stimulated
apoptotic rate (TUNEL-positive cells) (HeLa cells [5]): 53.2%
cytochrome c levels in the cytosolic fraction [6]: significant increases
cytochrome c mitochondrial levels [6]: concomitant decreases
apoptotic rate (TUNEL-positive cells) (MCF-7 cells [7]): 34.3%
IC50 (MCF-10A cells [1]): 351 µM
anti-proliferative effect / cytotoxicity on non-tumorigenic MCF-10A cells (MCF-10A cells [1]; up to 72 h): no significant anti-proliferative effect
CDK4 protein expression levels [8]: remained unaffected
cyclin D1 protein content ([8]; time dependent): significantly reduced
phosphorylated Rb protein content ([8]; time dependent): significantly reduced
IC50 (MCF-7 cells [2]): 17.7 µM
effect on the cell cycle (MCF-10A cells [9]): did not evidence any noticeable effect
expression level of activated caspase-8 [10]: unaffected
proteolytic cleavage of pro-caspase-9 into its active form [10]: time-dependently activated
ROS increase in the presence of NAC (MCF-7 cells [11]; MCF-7, 15 µM OI + NAC): no longer evident
ROS generation (MCF-7 cells [11]; MCF-7, 15 µM, vs control): significantly stimulated
increase of the percentage of cells in the G0/G1 phase (MCF-7 cells [12]): 15%
reduction of the fraction of cells in the S-phase (MCF-7 cells [12]): 30%
expression level of activated caspase-8 [13]: unaffected
proteolytic cleavage of pro-caspase-9 into its active form [13]: time-dependently activated
IC50 (HeLa cells [3]): 31.1 µM
mitochondrial mass (MitoTracker Deep-Red) (MCF-7 cells [14]): decrease
mitochondrial membrane potential (MitoTracker Orange) (MCF-7 cells [14]): decrease
mitochondrial membrane potential per mitochondria (ratio Orange vs. Deep-Red) (MCF-7 cells [14]): significantly decreased
cytochrome c levels in the cytosolic fraction [15]: significant increases
cytochrome c mitochondrial levels [15]: concomitant decreases
effect in TUNEL assay (MCF-10A cells [16]): did not evidence any noticeable effect
cells in the G1 phase (HeLa cells [17]): remarkable increase
cells in the S phase (HeLa cells [17]): considerable decrease
mitochondrial mass (MitoTracker Deep-Red) (HeLa cells [18]): decrease
mitochondrial membrane potential (MitoTracker Orange) (HeLa cells [18]): decrease
mitochondrial membrane potential per mitochondria (ratio Orange vs. Deep-Red) (HeLa cells [18]): significantly decreased
